Laboratory results: patent EP0376166A1, “Condensed quinoline system compound and process of preparation thereof” (MECT CORPORATION, priority 1988, dated 1990)
Converted amounts (≈) assume the structure as drawn.

How the values were obtained:
[1] = system: P-388; experiment: Prolongation of life span in P-388 implanted mice; type: in vivo, CDF mouse; details: for response vs control in vivo at 12.5 mg/kg / response vs control in vivo at 25 mg/kg / response vs control in vivo at 50 mg/kg / response vs control in vivo at 100 mg/kg / response vs control in vivo at 200 mg/kg / response vs control in vivo at 400 mg/kg: P388, ip, T/C %, Day 1 and Day 5, P-388 10⁶ cells/mouse i.p., read-out: Ratio of Life Prolongation (%); for response vs control in vivo at 50 mg/kg: dosage 50 mg/kg; for cure: cured mice per group of 6
Experimental: Animal used: CDF mouse (6 mice/group) Tumor: P-388 Number of implanted cells: 10⁶ cells/mouse Implanted site: i.p. Day of administration: Day 1 and Day 5 Dosage: LD₅₀ or 400 mg/kg/day at the maximum

[2] = system: KB Cell; experiment: Inhibition of multiplication (growth) of KB cells, in vitro; type: cell-based, human; details: Homo sapiens, 72 h, concentration for 50% growth inhibition vs control, compound added Day 1, cells counted Day 4, read-out: Conc.(ED50)
Experimental: KB cells, carcinomatous cell tumors, were transferred to in vitro floatation incubator systems, and added respectively with compounds of Examples 1 to 33. The results of cultivation added with these compounds were compared with the results of the control which was not added with any compound.
Cell used: KB Cell (Originating from human mouth epidermal cancer) Culture medium: Eagles minimal essential medium (MEM) supplemented with 10% calf serum Cultivation: 37°C carbon dioxide gas incubator (5% CO₂)
Day 0: KB cells were diluted in the culture medium to adjust the KB cell density to 2 x 10⁴/ml. Three ml of the cell suspension was inoculated in each of 60 mm plastic dishes. Two dishes per standard dosage were used. Day 1: Test compound was added to the medium so that the final concentrations were set to 100, 30, 10, 3 and 1 µg/ml. Day 4: Cells were scraped off from the dish using trypsin, and the cell number was countered using a Corter counter.
In generally accordance with the stipulations set forth by the National Cancer Institute (NCI), U.S.A., the concentration of compound necessary for exerting 50% growth inhibition (ED₅₀) compared to the control was determined. A compound was judged as effective when ED₅₀ was less than 4 µg/ml.

Compound	IC50 [2] [µg/mL]	response vs control in vivo at 12.5 mg/kg ([1]; dosage 12.5 mg/kg) [%]	response vs control in vivo at 25 mg/kg ([1]; dosage 25 mg/kg) [%]	response vs control in vivo at 50 mg/kg [1] [%]	cure ([1]; dosage 12.5 mg/kg)	cure ([1]; dosage 25 mg/kg)	response vs control in vivo at 100 mg/kg ([1]; dosage 100 mg/kg) [%]	response vs control in vivo at 200 mg/kg ([1]; dosage 200 mg/kg) [%]	cure ([1]; dosage 200 mg/kg)	response vs control in vivo at 400 mg/kg ([1]; dosage 400 mg/kg) [%]	cure ([1]; dosage 100 mg/kg)	cure ([1]; dosage 400 mg/kg)
COc1cc(NS(C)(=O)=O)ccc1Nc1c2ccccc2nc2c1[nH]c1ccc(NC3OC(COC(C)=O)C(OC(C)=O)C(OC(C)=O)C3OC(C)=O)cc12 (centres unmarked) [Compound 23, N-{4-[(7-(2,3,4,6-tetra-O-acetylglycosyl-1-amino)-10H-indolo[3,2-b]quinoline-11-yl)amino]-3-methoxyphenyl} methanesulfonamide]	< 0.3	300	148	58	2/6	1/6						
COc1cc(NS(C)(=O)=O)ccc1Nc1c2ccccc2nc2c1[nH]c1ccc(NC3OC(CO)C(O)C(O)C3O)cc12 (centres unmarked) [Compound 24, N-{4-[(7-(glycosyl-1-amino)-10H-indolo[3,2-b]quinoline-11-yl)amino]-3-methoxyphenyl} methanesulfonamide]	< 0.3	213	145	90	2/6							
COc1cc(NS(C)(=O)=O)ccc1Nc1c2ccccc2nc2c1[nH]c1ccc(NC(C)=O)cc12 [Compound 25]	< 0.3	135	174									
COc1cc(NS(C)(=O)=O)ccc1Nc1c2ccccc2nc2c1[nH]c1ccc(NS(C)(=O)=O)cc12 [Compound 26, 2-methanesulfonamide-6-(4-methanesulfonamide-2-methoxyanilino)indolo[3,2-b]quinoline]	< 0.3	126	111									
COc1cc(NS(C)(=O)=O)ccc1Nc1c2cccc(C)c2nc2c1oc1cc(C)ccc12 [Compound 29, 6-(4-methanesulfonamide-2-methoxyanilino)-3,10-dimethylbenzofurano[3,2-b]quinoline]	< 0.3						204	269	1/6	76	1/6	
COc1cc(NS(C)(=O)=O)ccc1Nc1c2cccc(C)c2nc2c1sc1ccccc12 [Compound 32, 6-(4-methanesulfonamide-2-methoxyanilino)-10-methylbenzothieno[3,2-b]quinoline]	1.4 (≈ 3.02 µM)						137	167		228		

Continued, in another order:

IC50 [2] [µg/mL]	Compound	response vs control in vivo at 12.5 mg/kg ([1]; dosage 12.5 mg/kg) [%]	response vs control in vivo at 25 mg/kg ([1]; dosage 25 mg/kg) [%]	response vs control in vivo at 50 mg/kg [1] [%]	cure ([1]; dosage 12.5 mg/kg)	cure ([1]; dosage 25 mg/kg)	response vs control in vivo at 100 mg/kg ([1]; dosage 100 mg/kg) [%]	response vs control in vivo at 200 mg/kg ([1]; dosage 200 mg/kg) [%]	cure ([1]; dosage 200 mg/kg)	response vs control in vivo at 400 mg/kg ([1]; dosage 400 mg/kg) [%]	cure ([1]; dosage 100 mg/kg)	cure ([1]; dosage 400 mg/kg)
0.38 (≈ 0.849 µM)	COc1cc(NS(C)(=O)=O)ccc1Nc1c2cccc(C)c2nc2c1oc1ccccc12 [Compound 27, 6-(4-methanesulfonamide-2-methoxyanilino)-10-methylbenzofurano[3,2-b]quinoline]						230	250	1/6			
< 0.3	COc1cc(NS(C)(=O)=O)ccc1Nc1c2cccc(C)c2nc2c1oc1cccc(C)c12 [Compound 28, 6-(4-methanesulfonamide-2-methoxyanilino)-1,10-dimethylbenzofurano[3,2-b]quinoline]			204			269					
1.5 (≈ 3.35 µM)	COc1cc(NS(C)(=O)=O)ccc1Nc1c2ccccc2nc2c1oc1cccc(C)c12 [Compound 30, 6-(4-methanesulfonamide-2-methoxyanilino)-1-methylbenzofurano[3,2-b]quinoline]						105	108		151		
< 0.3	COc1cc(NS(C)(=O)=O)ccc1Nc1c2ccccc2nc2c1oc1cc(C)ccc12 [Compound 31, 6-(4-methanesulfonamide-2-methoxyanilino)-3-methylbenzofurano[3,2-b]quinoline]						147	175	1/6	219		1/6
< 0.3	COc1cc(NS(C)(=O)=O)ccc1Nc1c2ccccc2nc2c1sc1cccc(C)c12 [Compound 33, 6-(4-methanesulfonamide-2-methoxyanilino)-1-methylbenzothieno[3,2-b]quinoline]						191	255	1/6	280		1/6
